In ChEMBL document CHEMBL1201862, “PubChem BioAssay data set” (2004):
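1) Cells in 96-well plates. 2) Compound, 48 h, 5 concentrations. 3) Linear interpolation between surrounding doses. 4) Unreached endpoint = highest concentration. GI50 = concentration required for 50% inhibition of growth.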 Activity calls are given as the source filed them. No stated cut-off is given here; in the data, active = GI50 up to about 1.1 µM and inactive = higher.

Experiments:
Experiment in all cases: inhibition of tumour cell growth, NCI panel, 48 h
786-0 = tested on: 786-0
A498 = tested on: A498
A549 = tested on: A549
ACHN = tested on: ACHN
CAKI-1 = tested on: CAKI-1
CCRF-CEM = tested on: CCRF-CEM
DLD-1 = tested on: DLD-1
DMS-114 = tested on: DMS-114
DMS-273 = tested on: DMS-273
HCC 2998 = tested on: HCC 2998
HCT-116 = tested on: HCT-116
HCT-15 = tested on: HCT-15
HL-60 = tested on: HL-60
HOP-62 = tested on: HOP-62
HOP-92 = tested on: HOP-92
HT-29 = tested on: HT-29
IGROV-1 = tested on: IGROV-1
K562 = tested on: K562
KM12 = tested on: KM12
LOX IMVI = tested on: LOX IMVI
LXFL 529 = tested on: LXFL 529
M14 = tested on: M14
M19-MEL = tested on: M19-MEL
MOLT-4 = tested on: MOLT-4
Malme-3M = tested on: Malme-3M
NCI-H226 = tested on: NCI-H226
NCI-H23 = tested on: NCI-H23
NCI-H460 = tested on: NCI-H460
NCI-H522 = tested on: NCI-H522
OVCAR-3 = tested on: OVCAR-3
OVCAR-4 = tested on: OVCAR-4
OVCAR-5 = tested on: OVCAR-5
OVCAR-8 = tested on: OVCAR-8
RXF 393 = tested on: RXF 393
SF-268 = tested on: SF-268
SF-295 = tested on: SF-295
SF-539 = tested on: SF-539
SK-MEL-28 = tested on: SK-MEL-28
SK-MEL-2 = tested on: SK-MEL-2
SK-MEL-5 = tested on: SK-MEL-5
SK-OV-3 = tested on: SK-OV-3
SNB-19 = tested on: SNB-19
SNB-75 = tested on: SNB-75
SNB-78 = tested on: SNB-78
SR = tested on: SR
SW-620 = tested on: SW-620
TK-10 = tested on: TK-10
U-251 = tested on: U-251
UACC-257 = tested on: UACC-257
UACC-62 = tested on: UACC-62
UO-31 = tested on: UO-31
XF498 = tested on: XF498
COLO 205 = tested on: COLO 205
KM-20L2 = tested on: KM-20L2
RPMI-8226 = tested on: RPMI-8226
SN12C = tested on: SN12C

Measured: GI50

Clc1ccc(OCc2nnc3n2N=C(c2ccccc2)CS3)c(Cl)c1
inactive: 786-0 9.48 µM | A498 2.24 µM | A549 6.5 µM | ACHN 29 µM | CAKI-1 7.33 µM | CCRF-CEM 4.03 µM | DLD-1 7.26 µM | DMS-114 > 100 µM | DMS-273 5.56 µM | HCC 2998 > 100 µM | HCT-116 2.67 µM | HL-60 3.7 µM | HOP-62 > 10 µM | HOP-92 4.21 µM | HT-29 5.74 µM | IGROV-1 6.4 µM | K562 4.25 µM | KM12 > 100 µM | LOX IMVI 1.64 µM | LXFL 529 5.6 µM | M14 > 10 µM | M19-MEL > 100 µM | MOLT-4 3.23 µM | Malme-3M > 100 µM | NCI-H226 9.84 µM | NCI-H23 5.66 µM | NCI-H460 5 µM | NCI-H522 3.81 µM | OVCAR-3 > 10 µM | OVCAR-4 50.9 µM | OVCAR-5 5.78 µM | OVCAR-8 7.33 µM | RXF 393 26.4 µM | SF-268 8.73 µM | SF-295 4.35 µM | SF-539 12.6 µM | SK-MEL-28 > 100 µM | SK-MEL-2 > 100 µM | SK-MEL-5 8.28 µM | SK-OV-3 > 100 µM | SNB-19 3.78 µM | SNB-75 3.02 µM | SNB-78 9.42 µM | SR 4.73 µM | SW-620 > 100 µM | TK-10 7.98 µM | U-251 4.81 µM | UACC-257 56.2 µM | UACC-62 6.58 µM | UO-31 2.14 µM | XF498 > 100 µM
> 100 µM: HCT-15

CN(C)CC(/C(Cc1ccccc1)=N\NC(=S)NN)c1ccccc1 (centres undefined)
inactive: 786-0 > 100 µM | A549 > 100 µM | ACHN > 100 µM | CAKI-1 > 100 µM | COLO 205 > 100 µM | DLD-1 > 100 µM | DMS-114 > 100 µM | DMS-273 > 100 µM | HCC 2998 > 100 µM | HCT-116 > 100 µM | HL-60 > 100 µM | HOP-62 > 100 µM | HOP-92 > 100 µM | HT-29 > 100 µM | IGROV-1 > 100 µM | K562 > 100 µM | KM-20L2 > 100 µM | KM12 > 100 µM | LOX IMVI > 100 µM | LXFL 529 > 100 µM | M14 > 100 µM | M19-MEL > 100 µM | MOLT-4 > 100 µM | Malme-3M > 100 µM | NCI-H226 > 100 µM | NCI-H23 > 100 µM | NCI-H460 > 100 µM | NCI-H522 > 100 µM | OVCAR-3 > 100 µM | OVCAR-4 > 100 µM | OVCAR-5 > 100 µM | OVCAR-8 > 100 µM | RPMI-8226 > 100 µM | RXF 393 > 100 µM | SF-268 > 100 µM | SF-295 > 100 µM | SF-539 > 100 µM | SK-MEL-28 > 100 µM | SK-OV-3 > 100 µM | SN12C > 100 µM | SNB-19 > 100 µM | SNB-75 > 100 µM | SNB-78 > 100 µM | SR > 100 µM | SW-620 > 100 µM | TK-10 > 100 µM | U-251 > 100 µM | UACC-257 > 100 µM | UACC-62 > 100 µM | UO-31 > 100 µM | XF498 > 100 µM
> 100 µM: HCT-15
